Positions of bridges follow the written chain, without caps; N, C: chain ends. Residues, ends and D or L forms follow the SMILES beside them. Some results are limits rather than exact numbers.

The nature of series [1]: Solubility. Type of series: physicochemical.
Series [2] has as its system sepsis. As to conditions: antibiotic-treated control group; cited from earlier work.

On to `CSCC[C@@H]1NC(=O)[C@H](CC(C)C)NC(=O)[C@H](CCCCN)NC(=O)[C@H](CCC(N)=O)NC(=O)[C@H](CCCNC(=N)N)NC(=O)[C@H](CCCCN)NC(=O)[C@H](CCCNC(=N)N)NC(=O)[C@H](CCC(N)=O)NC(=O)[C@H](C(C)C)NC(=O)[C@@H](NC(=O)[C@@H]2CCCN2C(=O)[C@H](C)NC(=O)[C@H](CC(C)C)NC(=O)[C@H](CC(C)C)NC(=O)[C@H](C)NC(=O)[C@H](CC(C)C)NC(=O)[C@H](CC(C)C)NC(=O)[C@@H](NC(=O)[C@H](C)NC(=O)[C@@H]2CCCN2C(=O)[C@H](CC(C)C)NC(=O)[C@H](CC(C)C)NC(=O)[C@H](C)NC(=O)[C@@H](NC(=O)[C@H](C)NC(=O)[C@H](C)N)C(C)C)C(C)C)CSSC[C@@H](C(=O)O)NC(=O)[C@@H]2CCCN2C1=O` [cSN50.1] (H-AAVALLPAVLLALLAPCVQRKRQKLMPC-OH; disulfide 17-28), for which the solubility in series [1] was ≥ 100 mg/mL. Besides, in series [1] (vs first generation NTCI (SN50 peptide)), the “water solubility and bioavailability relative to SN50 peptide” value is recorded as 8 times.

Regarding `C[C@@H](O)[C@H]1C(=O)N2C(C(=O)O)=C(S[C@@H]3CN[C@H](C(=O)N(C)C)C3)[C@H](C)[C@H]12` [meropenem], in series [2], the “survival with meropenem alone” value is 30%.

The term solubility denotes how much of the substance goes into solution per volume.
